# Where two headings read alike, the source gives them in different places.
# How the values were obtained:
# [1] = system: cigarette smoke-induced COPD; test: Acute (4 day) cigarette smoke exposure COPD model; type: in vivo, mouse; settings: acute 4 day smoke model
# Experimental: The efficacy of GSNOR inhibitors was assessed in a mouse model of chronic obstructive pulmonary disease (COPD) induced by short duration (4 days or 11 days) of exposure to cigarette smoke. Infiltration of inflammatory cells into the bronchoalveolar lavage fluid (BALF) and BALF levels of chemokines involved in inflammation and tissue turnover/repair were measured to assess the influences of GSNOR inhibitors on some of the early events associated with the initiation and progression of COPD.
# Efficacy of GSNOR inhibitors against COPD was explored using acute (4 day) and subchronic (11 day) models of cigarette smoke-induced COPD in mice. […] In animal models, changes in lung pathology are only evident after extended (several months) duration of exposure to cigarette smoke, thus making chronic models prohibitive as effective screening tools. More recently, models exploring inflammatory responses after short duration (2 weeks or less) of smoke exposure in mice have been utilized as tools for screening efficacy and mechanisms of action of novel therapeutics against COPD. The key roles of inflammation in the initiation and progression of COPD, make these short duration models relevant for initial tests of efficacy of novel therapeutics.
# Female C57Bl/6 mice (N=8 per group) were exposed to cigarette smoke using a whole body exposure chamber. Mice were exposed daily for 4 consecutive days to 4 cycles of smoke from 6 sequential cigarettes (Kentucky 3R4F without filter) with a 30 minute smoke free interval between cycles. GSNOR inhibitors were administered daily via oral dosing at 10 mg/kg/day for 7 days starting 2 days prior to smoke exposure and continuing 1 day post-exposure. The effects of GSNOR inhibitors were assessed by quantitating the numbers of total cells, leukocytes, and leukocytes differentials in the BALF via light microscopy and the levels of BALF chemokines via ELISA at approximately 24 h after the last smoke exposure. The effect of GSNOR inhibitors were compared to vehicle treated controls. The PDE4 inhibitor, roflumilast, was used as the positive control for the study. A group of naïve mice (N=8) was exposed to air and used as a negative control for the study.
# [2] = system: dextran sodium sulfate (DSS)-induced IBD; test: Acute prophylactic model of DSS-induced IBD; type: in vivo, mouse
# Source text: Acute and chronic models of dextran sodium sulfate (DSS)-induced IBD in mice were used to explore efficacy of GSNORi against this disease. Acute and chronic DSS-induced IBD are widely used and well characterized models that induce pathological changes in the colon similar to those observed in the human disease. In these models and in human disease, epithelial cells within the crypts of the colon are disrupted, leading to dysfunction of the epithelial barrier and the ensuing tissue inflammation, edema, and ulceration. GSNORi therapy may benefit IBD by restoring s-nitrosoglutathione (GSNO) levels, and thus prevent or reverse the epithelial barrier dysfunction. Experimental IBD was induced by administration of DSS in the drinking water of male C57Bl/6 mice (N=8 to 10 mice per group) for 6 consecutive days. GSNORi was dosed orally at doses of 0.1 to 10 mg/kg/day for 10 days starting two days prior to and continuing two days post DSS exposure. […] Levels of circulating cytokines involved in inflammatory pathways were also assessed. The effect of GSNORi was compared to vehicle treated controls. […] Naïve mice (N=5) were also assessed as a normal tissue control.
# [3] = biological target: T1, S-nitrosoglutathione reductase (GSNOR) (Homo sapiens, UniProt P11766); test: GSNOR assay (inhibition of GSNOR activity, NADH absorbance at 340 nm); type: biochemical
# T1 construct: made in house; host or cells: E. coli
# How it was run: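 Recombinant GSNOR purified from E. coli, tag removed. Final conditions: 100 mM NaPO4 pH 7.4, 0.240 mM GSNO, 0.300 mM NADH, 0.5 μg/mL enzyme, 1% DMSO; NADH loss followed as 340 nm absorbance change over 3 min at 25 °C. Compounds 100–0.003 μM, triplicate; IC50 by curve analysis.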
# [4] = Mouse pharmacokinetic (PK) study; type: in vivo; settings: male, BALB/c, plasma, po, 10 mg/kg, male BALB/c mice, 2 mg/kg IV, 10 mg/kg PO, read-out: oral bioavailability (% F)
# Source text: The mouse was used to determine the pharmacokinetics of compounds of the invention. This species is widely used to assess the bioavailability of compounds by administering both oral (PO) and intravenous (IV) test articles. Efficacy of the compounds of the invention was compared by assessing plasma exposure in male BALB/c mice either via IV or PO administration at the times of peak activity.
# Compounds of the invention were reconstituted in a phosphate buffered saline (PBS)/10% Solutol (HS 15) clear solution resulting in a concentration of 0.2 mg/mL and administered to mice (2 mg/kg) as a single IV dose. Animals were dosed via the lateral tail vein. Blood samples were collected at designated time points (0.083, 0.25, 0.5, 1, 2, 4, 8, 16, 24 hours) by cardiac puncture under isoflurane anesthesia (up to 1 mL blood per animal). The blood was collected into tubes containing Li-Heparin. The blood samples were kept on ice until centrifugation within approximately 30 minutes of collection. The plasma was transferred into labeled polypropylene tubes and frozen at −70° C. until analyzed by LC/MS/MS.
# The compounds of the invention were reconstituted in 40% Propylene Glycol/40% Propylene Carbonate/20% of a 5% Sucrose clear solution resulting in a concentration of 2 mg/mL and administered to mice (10 mg/kg) as a single oral dose via gavage. Blood samples were collected at 0.25, 0.5, 1, 2, 4, 8, 12, 16, 20 and 24 hours post dose by cardiac puncture under isoflurane anesthesia. The blood was collected in tubes containing Li-Heparin. The blood samples were kept on ice until centrifugation within approximately 30 minutes of collection. The plasma was transferred into labeled polypropylene tubes and frozen at −70° C. until analyzed by LC/MS/MS.
# Plasma samples at each timepoint were analyzed using a LC-MS/MS with a lower limit of quantification (LLOQ) of 1 ng/mL. Plasma was analyzed to determine the amount of the compound of the invention in each sample and regression curves generated for each compounds of the invention in the relevant matrixes.
# WinNonlin analysis was used for calculating PK parameters for both the IV and PO administrations:
# PK parameters for IV portion—AUClast; AUCINF; T1/2; Cl; Vss; Cmax; MRT
# PK parameters for PO portion—AUClast; AUCINF; T1/2; Cmax; Cl, MRT.
# In addition to the above PK parameters, bioavailability (% F) was calculated.
# GSNOR and NAD+ = biological target: T2, GSNOR and NAD+ (Homo sapiens, UniProt P11766); test: X-ray crystallography of inhibitor bound to GSNOR and NAD+, distance measurement; settings: crystal structure bound to GSNOR and NAD+; O atom of hydroxyl to C atom of carbonyl
# T2 construct: made in house; host or cells: E. coli
# Source text: Single crystal x-ray diffraction is a method useful to understanding the 3-dimensional structure of the binding pocket. The solved crystal structures offer significant information about the GSNOR binding pocket and the interactions of the inhibitors within the binding site. The crystal structure of the ternary complex of GSNOR, NAD+, and Compound IV-10 (Table 4, Example 1) (4-(7-hydroxy-4-oxo-2-(trifluoromethyl)-4H-chromen-3-yl)benzoic acid) was solved. The enzyme-ligand complex crystallized as a homodimer with Compound IV-10 binding to each GSNOR monomer. The key pharmacophores identified from the ternary complex of GSNOR inhibitor with GSNOR and NAD+ are the hydroxyl group on the bicyclic ring of Compound IV-10, which hydrogen bonds to histidine 66, cysteine 44, cysteine 173 and threonine 46. This hydroxyl group is also part of the Zn complex to histidine 66, cysteine 44, and cysteine 173 and threonine 46. The carboxylic acid of Compound IV-10 hydrogen bonds to the glutamine 111 and forms a salt bridge with lysine 283. […]
# Once the crystal structures were solved, a distance measurement was made. […] For the second crystal structure with Compound V-1 bound to GSNOR and NAD+, the distance between the hydroxyl group and the carboxylic acid found to be 12.34 Å (measured in the same manner as described above). […]
# [5] = GSNOR inhibitor activity, Tables 1-6, read-out: IC50 range
# T1 sequence (P11766 whole entry): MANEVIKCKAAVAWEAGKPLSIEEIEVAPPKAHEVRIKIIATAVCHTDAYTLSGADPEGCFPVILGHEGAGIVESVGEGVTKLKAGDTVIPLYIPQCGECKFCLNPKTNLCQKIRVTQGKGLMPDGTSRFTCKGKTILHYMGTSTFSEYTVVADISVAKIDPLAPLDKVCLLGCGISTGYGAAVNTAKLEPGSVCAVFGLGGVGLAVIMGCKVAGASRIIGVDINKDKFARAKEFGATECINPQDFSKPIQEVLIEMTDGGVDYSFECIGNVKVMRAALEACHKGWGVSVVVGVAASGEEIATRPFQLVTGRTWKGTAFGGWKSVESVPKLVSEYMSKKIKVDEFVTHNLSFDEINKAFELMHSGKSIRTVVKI
# T2 sequence (P11766 whole entry): as above
Structure (SMILES),effects compared with roflumilast [1],BALF chemokines ([1]; oral 10 mg/kg/day for 7 days),"circulating inflammatory cytokines ([2]; oral 0.1, 1, or 10 mg/kg/day for 10 days)",effects compared with prednisolone ([2]; prednisolone 3 mg/kg/day oral),"IC50 [3, 5] [nM]",bioavailability [4] [%],distance between the hydroxyl group and the carboxylic acid (GSNOR and NAD+) [Å],IC50 [3] [nM]
O=C(O)c1ccc(-c2ccc3cc(O)ccc3n2)cc1 [Compound I-3],comparable to or greater than those observed for roflumilast,restored BALF chemokines towards levels observed in naïve mice,restored circulating inflammatory cytokines towards levels observed in untreated naïve mice,comparable to or greater than those observed for prednisolone,< 100,–,–,–
"O=C(O)c1ccc(-c2c(C(F)(F)F)oc3cc(O)ccc3c2=O)cc1 [IV-10, 4-(7-hydroxy-4-oxo-2-(trifluoromethyl)-4H-chromen-3-yl)benzoic acid]",–,–,–,–,< 100,> 9,12.07,–
"O=C(O)c1ccc(Oc2c(C(F)(F)F)oc3cc(O)ccc3c2=O)cc1 [Compound V-1, 4-(7-hydroxy-4-oxo-2-(trifluoromethyl)-4H-chromen-3-yloxy)benzoic acid]",–,–,–,–,–,–,12.34,100 to 1000
